Measured values taken from ChEMBL document CHEMBL2073831, “Biliary transport of irinotecan and metabolites in normal and P-glycoprotein-deficient mice” (Cancer Chemother Pharmacol, 2002).

Molecular target: P-glycoprotein 1 and 3 (MDR1a/MDR1b) (Mus musculus, UniProt P21447+P06795)
Assay: TP_TRANSPORTER: decrease in biliary excretion in mdr1a/1b(-/-) mouse
Type: functional, organism-based, Bile
Details: in vivo

Activity: substrate [+]
Structure (SMILES): CCc1c2c(nc3ccc(OC(=O)N4CCC(N5CCCCC5)CC4)cc13)-c1cc3c(c(=O)n1C2)COC(=O)[C@]3(O)CC [IRINOTECAN]
